These results are taken from PubChem BioAssay (NCI).

Structures are written as SMILES.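 Protocol summary: plate cells (96-well), add compound at 5 concentrations, incubate 48 h, interpolate endpoints linearly. Here, GI50 denotes the concentration required for 50% inhibition of growth. Definition used: TGI = concentration required for complete inhibition of growth.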

Test systems include RPMI-8226 leukemia; SR leukemia; CAKI-1 renal; T-47D breast; OVCAR-4 ovarian; SN12C renal; ACHN renal; SF-539 CNS; HS 578T breast; SW-620 colon.
What all share (experiment): inhibition of tumour cell growth, NCI panel, 48 h

`O=c1[nH]ncc(Br)c1Br`: the GI50 with RPMI-8226 leukemia was 1.91 µM; with SR leukemia, 0.911 µM; with CAKI-1 renal, 1.44 µM; in the test with T-47D breast, 2.12 µM; in the test on OVCAR-4 ovarian, 1.71 µM; in the test with SN12C renal, 2.34 µM. In addition, the GI50 with ACHN renal was 1.79 µM; in the test with SF-539 CNS, 2.42 µM; in the test with HS 578T breast, 2.23 µM; in the test with SW-620 colon, 1.7 µM. Also, the TGI in the test with RPMI-8226 leukemia is 6.18 µM; with SR leukemia it was 3.9 µM; in the test on CAKI-1 renal it was 2.74 µM; in the test on T-47D breast, 6.07 µM; in the test with OVCAR-4 ovarian it was 3.08 µM; in the test on SN12C renal, 6.13 µM. In addition, the TGI turned out to be 3.17 µM in the test on ACHN renal, 6.31 µM in the test on SF-539 CNS, 9.51 µM in the test on HS 578T breast and 3.07 µM in the test on SW-620 colon.
Regarding `O=C1c2cc(Cl)ccc2S(=O)(=O)c2c(NCCCNCCO)nc3ccccc3c21`, the GI50 is 0.888 µM with RPMI-8226 leukemia; 0.466 µM in the test with SR leukemia; 1.18 µM with CAKI-1 renal; 1.24 µM in the test with T-47D breast; 0.985 µM with OVCAR-4 ovarian; 1.25 µM with SN12C renal. Besides, the GI50 was 0.493 µM in the test on ACHN renal, 1.6 µM with SF-539 CNS, 2.68 µM with HS 578T breast and 0.444 µM in the test on SW-620 colon. Besides, the TGI with RPMI-8226 leukemia amounted to 3.28 µM; in the test with SR leukemia, 5.11 µM; in the test with CAKI-1 renal it was 2.4 µM; in the test on T-47D breast it was 2.96 µM; in the test with OVCAR-4 ovarian, 2.18 µM; with SN12C renal, 2.51 µM. Further, the TGI with ACHN renal turned out to be 1.63 µM; in the test with SF-539 CNS, 3.13 µM; in the test on HS 578T breast, 14.9 µM; in the test on SW-620 colon it was 1.71 µM.
Regarding `CC(C)(C)OC(=O)N1CCc2c(sc3ncnc(N/N=C/c4cccc5ccccc45)c23)C1`, the GI50 is 2.28 µM with RPMI-8226 leukemia; 2.82 µM in the test on SR leukemia; 3.35 µM in the test on CAKI-1 renal; 3.04 µM in the test with T-47D breast; 3.79 µM in the test on OVCAR-4 ovarian; 5.04 µM with SN12C renal. Further, the GI50 in the test on ACHN renal is 3.24 µM; in the test with SF-539 CNS it was 2.72 µM; with HS 578T breast, 2.4 µM; in the test with SW-620 colon it was 3.87 µM. Moreover, the TGI with RPMI-8226 leukemia is 8.49 µM; in the test on SR leukemia, 16 µM; with CAKI-1 renal, > 100 µM; in the test with T-47D breast, 31.9 µM; with OVCAR-4 ovarian, 80.6 µM; in the test with SN12C renal, 32.9 µM. For the same molecule, the TGI is 78.5 µM in the test with ACHN renal, 8.59 µM in the test with SF-539 CNS, > 100 µM in the test with HS 578T breast and > 100 µM with SW-620 colon.
In the case of `O=C1CCCCN1CCCCC#Cc1ccccc1C#Cc1ccc([N+](=O)[O-])cc1`, the GI50 in the test on RPMI-8226 leukemia is 0.408 µM; in the test with SR leukemia, 0.0255 µM; in the test with CAKI-1 renal, 2.93 µM; in the test on T-47D breast it was 3.52 µM; in the test on OVCAR-4 ovarian, 4.38 µM; with SN12C renal, 17.1 µM. Also, the GI50 in the test with ACHN renal is 3.44 µM; with SF-539 CNS, 3.13 µM; with HS 578T breast, 5.05 µM; in the test with SW-620 colon, 5.18 µM. Also, the TGI in the test on RPMI-8226 leukemia is 3.39 µM; with SR leukemia, 2.14 µM; in the test on CAKI-1 renal, 15 µM; in the test on T-47D breast, 18.7 µM; with OVCAR-4 ovarian, 22.5 µM; with SN12C renal, 37.3 µM. Further, the TGI with ACHN renal amounted to 11.3 µM; in the test on SF-539 CNS it was 12.7 µM; in the test with HS 578T breast, 23.5 µM; in the test on SW-620 colon, 18.3 µM.
As to `Cn1c(=O)c2[nH]c(SCc3ccccn3)nc2n(C)c1=S`, the TGI in the test on RPMI-8226 leukemia, in the test with SR leukemia, in the test on CAKI-1 renal, in the test on T-47D breast, in the test with OVCAR-4 ovarian and with SN12C renal was > 100 µM in each case. For the same molecule, the TGI with ACHN renal, with SF-539 CNS, in the test with HS 578T breast and with SW-620 colon was > 100 µM each time.
Consider `COC(=O)[C@]12CC[C@@H](C)[C@H](C)[C@@H]1C1=CC[C@@H]3[C@@]4(C)C/C(=N\O)[C@H](O)[C@@]5(C)COC(=C45)C[C@@]3(C)[C@]1(C)CC2`, for which the GI50 in the test on RPMI-8226 leukemia is 2.67 µM; with SR leukemia it was 2.33 µM; in the test with CAKI-1 renal, 11.2 µM; in the test on T-47D breast, 9.3 µM; in the test with OVCAR-4 ovarian it was 4.46 µM; in the test on SN12C renal, 5.79 µM. In addition, the GI50 is 2.58 µM in the test on ACHN renal, 9.05 µM in the test on SF-539 CNS, 11.4 µM in the test on HS 578T breast and 8.42 µM with SW-620 colon. Also, the TGI in the test on RPMI-8226 leukemia is 6.82 µM; with SR leukemia, 5.77 µM; with CAKI-1 renal, 24.7 µM; in the test on T-47D breast, 25.7 µM; in the test on OVCAR-4 ovarian, 18.6 µM; with SN12C renal it was 21.2 µM. The TGI in the test on ACHN renal is 7.41 µM; in the test with SF-539 CNS, 22.4 µM; in the test on HS 578T breast it was 32.5 µM; in the test on SW-620 colon, 21.9 µM.
Consider `Cc1ccc(NC(=O)c2cccc(N(C)C)c2)cc1NC(=O)c1ccc(O)cc1`, for which the GI50 is > 63.1 µM in the test with RPMI-8226 leukemia; 31.5 µM in the test on SR leukemia; 52.8 µM in the test on CAKI-1 renal; > 48.7 µM in the test with T-47D breast; 38.6 µM in the test with OVCAR-4 ovarian; 55 µM in the test on SN12C renal. The GI50 in the test with ACHN renal is > 63.6 µM; in the test with SF-539 CNS, 41 µM; in the test on HS 578T breast, 63.6 µM; in the test with SW-620 colon, > 75.5 µM. Also, the TGI with RPMI-8226 leukemia is > 100 µM; with SR leukemia it was > 100 µM; in the test on CAKI-1 renal it was > 100 µM; in the test with T-47D breast it was > 79.2 µM; in the test with OVCAR-4 ovarian, > 100 µM; with SN12C renal, > 100 µM. Moreover, the TGI in the test with ACHN renal, with SF-539 CNS, in the test with HS 578T breast and with SW-620 colon was > 100 µM in each case.
For the molecule `COc1ccc(-c2cc(=O)c3ccc(O)cc3o2)cc1OC`, the TGI with RPMI-8226 leukemia, in the test with SR leukemia, in the test with CAKI-1 renal, with T-47D breast, in the test on OVCAR-4 ovarian and in the test with SN12C renal was > 100 µM in each case. The TGI with ACHN renal, in the test on SF-539 CNS, with HS 578T breast and in the test with SW-620 colon was > 100 µM throughout.
